Some test systems named below: ACHN renal; BT-549 breast; CAKI-1 renal; K-562 leukemia; KM12 colon; MDA-MB-231 breast; MDA-MB-435; OVCAR-3 ovarian; SF-539 CNS; SK-MEL-28 melanoma; SK-OV-3 ovarian; UACC-62 melanoma.
Common to all, as to assay: NCI anticancer screen, dose series, 48 h

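Tested at 5 concentrations; 48 h exposure; 96-well plates; endpoints linearly interpolated, else capped at highest concentration. Definition used: TGI = concentration required for complete inhibition of growth.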 Bounds are passed on as bounds.

In PubChem BioAssay (NCI) one finds TGI data, which are given here for 12 compounds.

As for `CC(C)CCNC(=O)c1ccc(CNC(=O)/C=C/c2csc(-c3ccccc3)n2)cc1`, the TGI with ACHN renal, with BT-549 breast, in the assay with CAKI-1 renal, in the assay on K-562 leukemia, with KM12 colon and in the assay on MDA-MB-231 breast was greater than 100 µM throughout. Further, the TGI in the assay on MDA-MB-435, in the assay on OVCAR-3 ovarian, with SF-539 CNS, with SK-MEL-28 melanoma, in the assay with SK-OV-3 ovarian and with UACC-62 melanoma was greater than 100 µM each time.

On to `O=NNc1cnccn1`, for which the TGI in the assay with ACHN renal, with BT-549 breast, in the assay with CAKI-1 renal, in the assay with K-562 leukemia, with KM12 colon and in the assay with MDA-MB-231 breast was greater than 1250 µM each time. Moreover, the TGI is greater than 1250 µM in the assay on MDA-MB-435; greater than 1250 µM in the assay on OVCAR-3 ovarian; greater than 1250 µM in the assay on SF-539 CNS; greater than 1250 µM in the assay with SK-MEL-28 melanoma; greater than 330 µM in the assay on SK-OV-3 ovarian; greater than 1220 µM with UACC-62 melanoma.

Take `O=c1[nH]cc(N(CCCl)CCCl)c(=O)[nH]1`: the TGI with ACHN renal was determined as 92.6 µM; in the assay with BT-549 breast, 158 µM; in the assay with CAKI-1 renal, 56.7 µM; in the assay with K-562 leukemia, 283 µM; in the assay with KM12 colon, 232 µM; in the assay with MDA-MB-231 breast, 211 µM. The TGI in the assay on MDA-MB-435 turned out to be 136 µM; in the assay on OVCAR-3 ovarian, 223 µM; in the assay with SF-539 CNS, 60.5 µM; in the assay on SK-MEL-28 melanoma, 204 µM; with SK-OV-3 ovarian, 183 µM; in the assay with UACC-62 melanoma, 60.6 µM.

Turning to `CC(=O)O[C@H]1[C@@H](OC2CCCC2(c2ccccc2)c2ccccc2)O[N+]([O-])=C[C@@]12COCc1cc3c(cc12)OCO3` (some centres undefined), the TGI was greater than 43.6 µM with ACHN renal; greater than 86.2 µM with BT-549 breast; greater than 100 µM in the assay with CAKI-1 renal; greater than 23.7 µM with K-562 leukemia; 11.3 µM in the assay with KM12 colon; greater than 43.2 µM in the assay on MDA-MB-231 breast. Further, the TGI in the assay on MDA-MB-435 was 14.3 µM; in the assay with OVCAR-3 ovarian it was 4.71 µM; with SF-539 CNS, greater than 100 µM; in the assay on SK-MEL-28 melanoma, greater than 28.4 µM; in the assay on SK-OV-3 ovarian, greater than 91.6 µM; in the assay on UACC-62 melanoma, 25.9 µM.

As to `OCCCCn1cc(Cn2ncc3c(SCc4ccccc4)ncnc32)nn1`, the TGI in the assay on ACHN renal, in the assay on BT-549 breast, with CAKI-1 renal, with K-562 leukemia, with KM12 colon and with MDA-MB-231 breast was greater than 100 µM throughout. Also, the TGI in the assay on MDA-MB-435, in the assay on OVCAR-3 ovarian, in the assay on SF-539 CNS, in the assay with SK-MEL-28 melanoma, with SK-OV-3 ovarian and in the assay on UACC-62 melanoma was greater than 100 µM each time.

`CCOC(=O)/C=C(\C(=O)OCC)n1cnc2c(N)ncnc21`: the TGI in the assay with ACHN renal amounted to 18.5 µM; with BT-549 breast, 27.3 µM; in the assay on CAKI-1 renal, 2.86 µM; in the assay on K-562 leukemia, 5.52 µM; with KM12 colon, 30.5 µM; in the assay with MDA-MB-231 breast it was 21.8 µM. Further, the TGI with MDA-MB-435 is 24.7 µM; in the assay with OVCAR-3 ovarian, 21.4 µM; with SF-539 CNS it was 29.3 µM; in the assay with SK-MEL-28 melanoma, 27.8 µM; with SK-OV-3 ovarian it was 32 µM; in the assay with UACC-62 melanoma, 23.8 µM.

On to `CC(=O)N1CC[N+](C)(CCCCN2c3ccccc3Sc3cc(N=[N+]=[N-])ccc32)CC1`, for which the TGI in the assay with ACHN renal, with BT-549 breast, with CAKI-1 renal, in the assay with K-562 leukemia, with KM12 colon and in the assay with MDA-MB-231 breast was greater than 100 µM throughout. Further, the TGI in the assay on MDA-MB-435, with OVCAR-3 ovarian, with SF-539 CNS, with SK-MEL-28 melanoma, with SK-OV-3 ovarian and in the assay with UACC-62 melanoma was greater than 100 µM each time.

Regarding `O=C1N(CN2CCOCC2)CN(CN2CCOCC2)C(=O)N1Cc1ccccc1`, the TGI with ACHN renal is greater than 100 µM; in the assay on BT-549 breast, 57 µM; in the assay on CAKI-1 renal it was 92.8 µM; with K-562 leukemia, 51.4 µM; in the assay with KM12 colon, 57.4 µM; in the assay on MDA-MB-231 breast it was 69.6 µM. Also, the TGI was 38 µM with MDA-MB-435; 59.7 µM with OVCAR-3 ovarian; 38.9 µM in the assay on SF-539 CNS; 34.8 µM in the assay with SK-MEL-28 melanoma; greater than 100 µM in the assay on SK-OV-3 ovarian; 49.4 µM with UACC-62 melanoma.

For `CCOC(=O)NC(NNc1ccc([N+](=O)[O-])cc1[N+](=O)[O-])(C(F)(F)F)C(F)(F)F`, the TGI in the assay with ACHN renal, in the assay on BT-549 breast, in the assay with CAKI-1 renal, in the assay on K-562 leukemia, in the assay with KM12 colon and with MDA-MB-231 breast was greater than 100 µM in each case. Further, the TGI with MDA-MB-435 was greater than 100 µM; in the assay on OVCAR-3 ovarian, greater than 100 µM; with SF-539 CNS, 74.3 µM; in the assay with SK-MEL-28 melanoma, greater than 100 µM; in the assay with SK-OV-3 ovarian, 69.4 µM; with UACC-62 melanoma, greater than 100 µM.

Take `O=Cc1[nH]c(=O)[nH]c(=O)c1CCl`: the TGI in the assay on ACHN renal, with BT-549 breast, in the assay with CAKI-1 renal, with K-562 leukemia, in the assay on KM12 colon and in the assay on MDA-MB-231 breast was greater than 100 µM each time. In addition, the TGI with MDA-MB-435, with OVCAR-3 ovarian, with SF-539 CNS, with SK-MEL-28 melanoma, in the assay on SK-OV-3 ovarian and in the assay on UACC-62 melanoma was greater than 100 µM throughout.

Take `O=C(O)c1cncc(C(=O)O)c1`: the TGI with ACHN renal, in the assay with BT-549 breast, with CAKI-1 renal, in the assay on K-562 leukemia, with KM12 colon and with MDA-MB-231 breast was greater than 100 µM throughout. In addition, the TGI in the assay on MDA-MB-435, with OVCAR-3 ovarian, with SF-539 CNS, with SK-MEL-28 melanoma, in the assay with SK-OV-3 ovarian and with UACC-62 melanoma was greater than 100 µM throughout.

Regarding `CC(C)/C(Cl)=N\OC(=O)Nc1ccc(F)c([N+](=O)[O-])c1`, the TGI with ACHN renal was 3.39 µM; in the assay with BT-549 breast, 27 µM; in the assay on CAKI-1 renal it was 3.27 µM; in the assay on K-562 leukemia, greater than 100 µM; in the assay with KM12 colon, 28.5 µM; in the assay on MDA-MB-231 breast it was 28.9 µM. Further, the TGI in the assay with MDA-MB-435 stood at 26 µM; in the assay on OVCAR-3 ovarian, 27.2 µM; with SF-539 CNS, 7.82 µM; with SK-MEL-28 melanoma, 17.4 µM; in the assay on SK-OV-3 ovarian, 34 µM; in the assay on UACC-62 melanoma it was 39.1 µM.
